In PubChem BioAssay AID256 (DTP/NCI, 2004):
Toxic doses and inconclusive results are not listed.

Test system: CD2F1 mice, L1210 leukemia ip, survival T/C
Assay: NCI In Vivo Anticancer Drug Screen. Data for tumor model L1210 Leukemia (intraperitoneal) in CD2F1 (CDF1) mice
Conditions: higher = longer survival
Procedure, shortened: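 Transplantable tumor in mice; compound-treated vs vehicle-treated groups. Read-out = treated/control ratio of the measured endpoint.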

[1] = endpoint: mean survival time, dose: 100.0 mg/kg/injection, schedule: Q01DX001 (ip), vehicle: saline
[2] = endpoint: mean survival time, dose: 200.0 mg/kg/injection, schedule: Q01DX001 (ip), vehicle: saline
[3] = endpoint: mean survival time, dose: 400.0 mg/kg/injection, schedule: Q01DX001 (ip), vehicle: saline
[4] = endpoint: mean survival time, dose: 100.0 mg/kg/injection, schedule: Q04DX003 (ip), vehicle: saline with Tween-80
[5] = endpoint: mean survival time, dose: 200.0 mg/kg/injection, schedule: Q04DX003 (ip), vehicle: saline with Tween-80
[6] = endpoint: mean survival time, dose: 400.0 mg/kg/injection, schedule: Q04DX003 (ip), vehicle: saline with Tween-80

Compound: CC(=O)[O][Hg][c]1ccccc1
- T/C (endpoint: mean survival time, dose: 12.5 mg/kg/injection, schedule: Q01DX001 (ip), vehicle: Klucel (hydroxypropylcellulose) (HPC)): 100 % of control
- T/C (endpoint: mean survival time, dose: 12.5 mg/kg/injection, schedule: Q01DX009 (ip), vehicle: saline with Tween-80): 106 % of control
- T/C (endpoint: mean survival time, dose: 25.0 mg/kg/injection, schedule: Q01DX001 (ip), vehicle: Klucel (hydroxypropylcellulose) (HPC)): 106 % of control
- T/C (endpoint: mean survival time, dose: 25.0 mg/kg/injection, schedule: Q01DX009 (ip), vehicle: saline with Tween-80): 98 % of control

Compound: NC(=O)c1ncn(C2OC(COP(=O)(O)O)C(O)C2O)c1N (centres undefined)
- T/C (endpoint: mean survival time, dose: 12.5 mg/kg/injection, schedule: Q01DX005 (ip), vehicle: water): 97 % of control
- T/C (endpoint: mean survival time, dose: 25.0 mg/kg/injection, schedule: Q01DX005 (ip), vehicle: water): 96 % of control
- T/C (endpoint: mean survival time, dose: 50.0 mg/kg/injection, schedule: Q01DX005 (ip), vehicle: water): 102 % of control
- T/C [1]: 102 % of control
- T/C (endpoint: mean survival time, dose: 100.0 mg/kg/injection, schedule: Q01DX005 (ip), vehicle: water): 94 % of control
- T/C [2]: 95 % of control
- T/C (endpoint: mean survival time, dose: 200.0 mg/kg/injection, schedule: Q01DX005 (ip), vehicle: water): 100 % of control
- T/C [3]: 101 % of control

Compound: Cc1cc(S(=O)(=O)F)cc(Cl)c1OC(=S)N(C)C
- T/C (endpoint: mean survival time, dose: 100.0 mg/kg/injection, schedule: Q04DX002 (ip), vehicle: saline with Tween-80): 96 % of control
- T/C (endpoint: mean survival time, dose: 200.0 mg/kg/injection, schedule: Q04DX002 (ip), vehicle: saline with Tween-80): 96 % of control
- T/C (endpoint: mean survival time, dose: 400.0 mg/kg/injection, schedule: Q04DX002 (ip), vehicle: saline with Tween-80): 92 % of control

Compound: O=S(=O)(O)SNCCN1CCOCC1
- T/C (endpoint: mean survival time, dose: 6.25 mg/kg/injection, schedule: Q01DX009 (ip), vehicle: saline): 106 % of control
- T/C (endpoint: mean survival time, dose: 6.25 mg/kg/injection, schedule: Q04DX003 (ip), vehicle: saline): 104 % of control
- T/C (endpoint: mean survival time, dose: 12.5 mg/kg/injection, schedule: Q01DX009 (ip), vehicle: saline): 98 % of control
- T/C (endpoint: mean survival time, dose: 12.5 mg/kg/injection, schedule: Q04DX003 (ip), vehicle: saline): 102 % of control
- T/C (endpoint: mean survival time, dose: 25.0 mg/kg/injection, schedule: Q01DX009 (ip), vehicle: saline): 107 % of control
- T/C (endpoint: mean survival time, dose: 25.0 mg/kg/injection, schedule: Q04DX003 (ip), vehicle: saline): 101 % of control

Compound: CC12CS(=O)(=O)CC1O2 (centres undefined)
- T/C [4]: 101 % of control
- T/C [5]: 96 % of control
- T/C [6]: 101 % of control

Compound: CCOC(=O)CC1NCCS1 (centres undefined)
- T/C [1]: 97 % of control
- T/C [2]: 96 % of control
- T/C [3]: 94 % of control

Compound: NC(CCSCc1ccccc1)C(=O)O (centres undefined)
- T/C (endpoint: mean survival time, dose: 100.0 mg/kg/injection, schedule: Q01DX009 (ip), vehicle: saline with Tween-80): 91 % of control
- T/C [4]: 98 % of control
- T/C (endpoint: mean survival time, dose: 200.0 mg/kg/injection, schedule: Q01DX009 (ip), vehicle: saline with Tween-80): 91 % of control
- T/C [5]: 93 % of control
- T/C (endpoint: mean survival time, dose: 400.0 mg/kg/injection, schedule: Q01DX009 (ip), vehicle: saline with Tween-80): 91 % of control
- T/C [6]: 95 % of control

Compound: CCCCCCCCCCCCCCCC(=O)N(CCCN)c1ccc(N(CCCN)C(=O)CCCCCCCCCCCCCCC)cc1
- T/C [4]: 98 % of control
- T/C [5]: 98 % of control
- T/C [6]: 97 % of control

Compound: O=S(=O)(OCC1C2CC3C(C2)C13)c1ccc(Br)cc1 (centres undefined)
- T/C (endpoint: mean survival time, dose: 100.0 mg/kg/injection, schedule: Q04DX003 (ip), vehicle: other): 101 % of control
- T/C (endpoint: mean survival time, dose: 200.0 mg/kg/injection, schedule: Q04DX003 (ip), vehicle: other): 100 % of control
- T/C (endpoint: mean survival time, dose: 400.0 mg/kg/injection, schedule: Q04DX003 (ip), vehicle: other): 91 % of control

Compound: CCN(CC)CCNc1ccc(C)c2sc3ccc(O)cc3c(=O)c12
- T/C (endpoint: median survival time, dose: 12.0 mg/kg/injection, schedule: Q01DX009 (ip), vehicle: saline with Tween-80): 106 % of control
- T/C (endpoint: median survival time, dose: 12.5 mg/kg/injection, schedule: Q01DX009 (ip), vehicle: saline with Tween-80): 110 % of control
- T/C (endpoint: median survival time, dose: 25.0 mg/kg/injection, schedule: Q01DX009 (ip), vehicle: saline with Tween-80): 121 % of control
- T/C (endpoint: median survival time, dose: 50.0 mg/kg/injection, schedule: Q01DX009 (ip), vehicle: saline with Tween-80): 159 % of control
- T/C (endpoint: median survival time, dose: 200.0 mg/kg/injection, schedule: Q01DX009 (ip), vehicle: saline with Tween-80): 103 % of control
